These results are taken from patent US12281122B1, “PI3K inhibitors” (Cogent Biosciences, Inc., priority 2023, dated 2025).

For assay [1], the system named is T47D (PI3Kα-H1047R) cell line. The experiment in a line: HTRF phospho-AKT(S473) cell assay in T47D cells. It counts as cell-based, human. The method, boiled down: (§1)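 T47D: RPMI + 10% FBS + 0.2 units/mL insulin, top 5 μM. SKBR3: McCoy's 5A + 10% FBS, top 10 μM, 70 ng/ml PDGF-BB last 15 min. Both: 12-pt 1:3, 2 h, 37° C, max 0.5% DMSO; HTRF pAKT(S473); IC50.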
The test system of assay [2] is SKBR3 (PI3Kα-Wild Type) cell line. The experiment in a line: HTRF phospho-AKT(S473) cell assay in SKBR3 cells. It counts as cell-based, human. The gist of the method: as §1
[3] abbreviates: Homo sapiens; T47D (PI3Kα-H1047R) cells, HTRF phospho-AKT(S473), 2 hours compound incubation.
Setting [4] is: Homo sapiens, SK-BR-3; SKBR3 (PI3Kα-Wild Type) cells, HTRF phospho-AKT(S473), 2 hours compound incubation, PDGF-BB stimulated.
[5] abbreviates: Homo sapiens; HTRF phospho-AKT(S473), T47D (PI3Kα-H1047R) cells, 2 hours compound incubation.
The mark [6] stands for this setting: Homo sapiens, SK-BR-3; HTRF phospho-AKT(S473), SKBR3 (PI3Kα-Wild Type) cells, 2 hours compound incubation, PDGF-BB stimulated.

In the case of `Cc1cc([C@@H](C)Nc2ccc(Cl)nc2C(=O)NS(C)(=O)=O)c2nc(N3Cc4nn(-c5ccccc5C)c(N)c4C3)n(C)c(=O)c2c1` [Compound 350, (R)-3-((1-(2-(3-amino-2-(o-tolyl)-2,6-dihydropyrrolo[3,4-c]pyrazol-5(4H)-yl)-3,6-dimethyl-4-oxo-3,4-dihydroquinazolin-8-yl)ethyl)amino)-6-chloro-N-(methylsulfonyl) picolinamide], the IC50 is below 250 nM in assay [1] (setting [3]) and at least 5000 nM in assay [2] (setting [4]).
In the case of `Cc1cc([C@@H](C)Nc2ccc(Cl)nc2C(=O)NS(C)(=O)=O)c2nc(N3Cc4cnn(CC(F)(F)F)c4C3)n(C3CC3)c(=O)c2c1` [Compound 736, (R)-6-chloro-3-((1-(3-cyclopropyl-6-methyl-4-oxo-2-(1-(2,2,2-trifluoroethyl)-4,6-dihydropyrrolo[3,4-c]pyrazol-5(1H)-yl)-3,4-dihydroquinazolin-8-yl)ethyl)amino)-N-(methylsulfonyl) picolinamide], the figures for the concentration for half-maximal inhibition (IC50) in assay [1] (setting [5]) and in assay [2] (setting [6]) were 500 to 1000 nM and at least 5000 nM, respectively.
Regarding `Cc1cc([C@@H](C)Nc2ccc(Cl)nc2C(=O)NS(C)(=O)=O)c2nc(N3CCC(C)(c4c(F)cnn4C)CC3)n(C)c(=O)c2c1` [Compound 407, (R)-6-chloro-3-((1-(2-(4-(4-fluoro-1-methyl-1H-pyrazol-5-yl)-4-methylpiperidin-1-yl)-3,6-dimethyl-4-oxo-3,4-dihydroquinazolin-8-yl)ethyl)amino)-N-(methylsulfonyl) picolinamide], the IC50 in assay [1] (setting [3]) is 250 to 500 nM; in assay [2] (setting [4]) it was at least 5000 nM.
Regarding `Cc1cc([C@@H](C)Nc2ccc(Cl)nc2C(=O)NS(C)(=O)=O)c2nc(N3C[C@@H]4C[C@H]3CN4c3ncc(C#N)cc3F)n(C)c(=O)c2c1` [Compound 579, 6-chloro-3-(((R)-1-(2-((1S,4S)-5-(5-cyano-3-fluoropyridin-2-yl)-2,5-diazabicyclo [2.2.1]heptan-2-yl)-3,6-dimethyl-4-oxo-3,4-dihydroquinazolin-8-yl)ethyl)amino)-N-(methylsulfonyl) picolinamide], the IC50 in assay [1] (setting [5]) was 250 to 500 nM; in assay [2] (setting [6]), at least 5000 nM.
As to `Cc1cc([C@@H](C)Nc2ccc(Cl)nc2C(=O)NS(C)(=O)=O)c2nc(N3CCC(c4cnn(C)n4)CC3)n(C)c(=O)c2c1` [Compound 489, (R)-6-chloro-3-((1-(3,6-dimethyl-2-(4-(2-methyl-2H-1,2,3-triazol-4-yl)piperidin-1-yl)-4-oxo-3,4-dihydroquinazolin-8-yl)ethyl)amino)-N-(methylsulfonyl) picolinamide], the results for the concentration for half-maximal inhibition (IC50) in assay [1] (setting [5]) and in assay [2] (setting [6]) were below 250 nM and 1000 to 5000 nM, respectively.
Take `COCCn1ncc2cc(-c3nc4c([C@@H](C)Nc5ccc(Cl)nc5C(=O)NS(C)(=O)=O)cc(C)cc4c(=O)n3C)ccc21` [Compound 791, (R)-6-chloro-3-((1-(2-(1-(2-methoxyethyl)-1H-indazol-5-yl)-3,6-dimethyl-4-oxo-3,4-dihydroquinazolin-8-yl)ethyl)amino)-N-(methylsulfonyl) picolinamide]: the IC50 is below 250 nM in assay [1] (setting [5]) and 1000 to 5000 nM in assay [2] (setting [6]).
The like results for `Cc1cc([C@@H](C)Nc2ccc(Cl)nc2C(=O)NS(C)(=O)=O)c2nc(N3C[C@@H]4[C@H](C3)[C@H]4c3cnc(C4CC4)nc3)n(C)c(=O)c2c1` [Compound 485, 6-chloro-3-(((R)-1-(2-((1R,5S,6S)-6-(2-cyclopropylpyrimidin-5-yl)-3-azabicyclo[3.1.0]hexan-3-yl)-3,6-dimethyl-4-oxo-3,4-dihydroquinazolin-8-yl)ethyl)amino)-N-(methylsulfonyl) picolinamide] were, in that order, 250 to 500 nM and 1000 to 5000 nM.
`Cc1cc([C@@H](C)Nc2ccc(Cl)nc2C(=O)NS(C)(=O)=O)c2nc(N3CCN(c4ncc(C#N)cc4C)CC3)n(C)c(=O)c2c1` [Compound 184, (R)-6-chloro-3-((1-(2-(4-(5-cyano-3-methylpyridin-2-yl)piperazin-1-yl)-3,6-dimethyl-4-oxo-3,4-dihydroquinazolin-8-yl)ethyl)amino)-N-(methylsulfonyl) picolinamide]: the IC50 was below 250 nM in assay [1] (setting [3]) and 1000 to 5000 nM in assay [2] (setting [4]).
Take `Cc1cc([C@@H](C)Nc2ccc(Cl)nc2C(=O)NS(C)(=O)=O)c2nc(N3CC[C@@H](c4cnc(C)nc4)C3)n(C)c(=O)c2c1` (relative stereo) [Compound 657, 6-chloro-3-(((R)-1-(3,6-dimethyl-2-((R*)-3-(2-methylpyrimidin-5-yl)pyrrolidin-1-yl)-4-oxo-3,4-dihydroquinazolin-8-yl)ethyl)amino)-N-(methylsulfonyl) picolinamide]: the half-maximal inhibitory concentration (IC50) in assay [1] (setting [5]) was 250 to 500 nM; in assay [2] (setting [6]), at least 5000 nM.
For the molecule `Cc1cc([C@@H](C)Nc2ccc(Cl)nc2C(=O)NS(C)(=O)=O)c2nc(N3CCC(n4cccn4)CC3)n(C)c(=O)c2c1` [Compound 199, (R)-3-((1-(2-(4-(1H-pyrazol-1-yl)piperidin-1-yl)-3,6-dimethyl-4-oxo-3,4-dihydroquinazolin-8-yl)ethyl)amino)-6-chloro-N-(methylsulfonyl) picolinamide], the IC50 in assay [1] (setting [3]) is below 250 nM; in assay [2] (setting [4]), 1000 to 5000 nM.
For `Cc1cc([C@@H](C)Nc2ccc(Cl)nc2C(=O)NS(C)(=O)=O)c2nc(-c3ccc4c(c3)CN(C)C4=O)n(C)c(=O)c2c1` [Compound 796, (R)-6-chloro-3-((1-(3,6-dimethyl-2-(2-methyl-1-oxoisoindolin-5-yl)-4-oxo-3,4-dihydroquinazolin-8-yl)ethyl)amino)-N-(methylsulfonyl) picolinamide], the IC50 is below 250 nM in assay [1] (setting [5]) and 1000 to 5000 nM in assay [2] (setting [6]).
The like results for `Cc1cc([C@@H](C)Nc2ccc(Cl)nc2C(=O)NS(C)(=O)=O)c2nc(-c3ccc(C4(C#N)CC4)cc3)n(C)c(=O)c2c1` [Compound 773, (R)-6-chloro-3-((1-(2-(4-(1-cyanocyclopropyl)phenyl)-3,6-dimethyl-4-oxo-3,4-dihydroquinazolin-8-yl)ethyl)amino)-N-(methylsulfonyl) picolinamide] were, in that order, below 250 nM and 1000 to 5000 nM.
In the case of `COc1cc(N2C[C@H]3C[C@@H]2CN3c2nc3c([C@@H](C)Nc4ccc(Cl)nc4C(=O)NS(C)(=O)=O)cc(C)cc3c(=O)n2C)ccn1` [Compound 639, 6-chloro-3-(((R)-1-(2-((1R,4R)-5-(2-methoxypyridin-4-yl)-2,5-diazabicyclo [2.2.1]heptan-2-yl)-3,6-dimethyl-4-oxo-3,4-dihydroquinazolin-8-yl)ethyl)amino)-N-(methylsulfonyl) picolinamide], the IC50 in assay [1] (setting [5]) is 500 to 1000 nM; in assay [2] (setting [6]), at least 5000 nM.
`Cc1cc([C@@H](C)Nc2ccc(Cl)nc2C(=O)NS(C)(=O)=O)c2nc(N3CCN(c4nn(C)cc4F)CC3)n(C)c(=O)c2c1` [Compound 450, (R)-6-chloro-3-((1-(2-(4-(4-fluoro-1-methyl-1H-pyrazol-3-yl)piperazin-1-yl)-3,6-dimethyl-4-oxo-3,4-dihydroquinazolin-8-yl)ethyl)amino)-N-(methylsulfonyl) picolinamide]: the IC50 in assay [1] (setting [5]) was below 250 nM; in assay [2] (setting [6]), at least 5000 nM.
The like results for `Cc1cc([C@@H](C)Nc2ccc(Cl)nc2C(=O)NS(C)(=O)=O)c2nc(N3C[C@@H]4[C@H](C3)[C@H]4n3cc(F)c(C)n3)n(C)c(=O)c2c1` [Compound 543, 6-chloro-3-(((R)-1-(2-((1R,5S,6S)-6-(4-fluoro-3-methyl-1H-pyrazol-1-yl)-3-azabicyclo[3.1.0]hexan-3-yl)-3,6-dimethyl-4-oxo-3,4-dihydroquinazolin-8-yl)ethyl)amino)-N-(methylsulfonyl) picolinamide] were, in that order, 250 to 500 nM and at least 5000 nM.
Take `Cc1cc([C@@H](C)Nc2ccc(Cl)nc2C(=O)NS(C)(=O)=O)c2nc(N3CCC(c4nn(C)cc4F)CC3)n(C3CC3)c(=O)c2c1` [Compound 410, (R)-6-chloro-3-((1-(3-cyclopropyl-2-(4-(4-fluoro-1-methyl-1H-pyrazol-3-yl)piperidin-1-yl)-6-methyl-4-oxo-3,4-dihydroquinazolin-8-yl)ethyl)amino)-N-(methylsulfonyl) picolinamide]: the IC50 is 250 to 500 nM in assay [1] (setting [3]) and at least 5000 nM in assay [2] (setting [4]).
As to `Cc1cc([C@@H](C)Nc2ccc(Cl)nc2C(=O)NS(C)(=O)=O)c2nc(N3Cc4cn(-c5ccncc5)nc4C3)n(C)c(=O)c2c1` [Compound 192, (R)-6-chloro-3-((1-(3,6-dimethyl-4-oxo-2-(2-(pyridin-4-yl)-2,6-dihydropyrrolo[3,4-c]pyrazol-5(4H)-yl)-3,4-dihydroquinazolin-8-yl)ethyl)amino)-N-(methylsulfonyl) picolinamide], the IC50 in assay [1] (setting [3]) is below 250 nM; in assay [2] (setting [4]) it was 1000 to 5000 nM.
Take `Cc1cc([C@@H](C)Nc2ccc(Cl)nc2C(=O)NS(C)(=O)=O)c2nc(N3CCC(c4nc(C)n(C)n4)CC3)n(C)c(=O)c2c1` [Compound 459, (R)-6-chloro-3-((1-(2-(4-(1,5-dimethyl-1H-1,2,4-triazol-3-yl)piperidin-1-yl)-3,6-dimethyl-4-oxo-3,4-dihydroquinazolin-8-yl)ethyl)amino)-N-(methylsulfonyl) picolinamide]: the IC50 in assay [1] (setting [5]) was below 250 nM; in assay [2] (setting [6]) it was at least 5000 nM.
Take `COc1ccc(N2C[C@H]3C[C@@H]2CN3c2nc3c([C@@H](C)Nc4ccc(Cl)nc4C(=O)NS(C)(=O)=O)cc(C)cc3c(=O)n2C)cn1` [Compound 638, 6-chloro-3-(((R)-1-(2-((1R,4R)-5-(6-methoxypyridin-3-yl)-2,5-diazabicyclo [2.2.1]heptan-2-yl)-3,6-dimethyl-4-oxo-3,4-dihydroquinazolin-8-yl)ethyl)amino)-N-(methylsulfonyl) picolinamide]: the concentration for half-maximal inhibition (IC50) in assay [1] (setting [5]) is 250 to 500 nM; in assay [2] (setting [6]) it was at least 5000 nM.
